Blank lines part the entries; values can stand above or below the molecule they belong to.
Test: photoluminescence quantum yield (fraction); solvent given as SMILES

Structure (SMILES): CCCCCCN(CCCCCC)c1ccc(C#Cc2ccc(N(CCCCCC)CCCCCC)cc2)cc1
photoluminescence quantum yield (in CO): 0.0001

Structure (SMILES): F[B-]1(F)n2c(/C=C/c3ccc(C(=C(c4ccccc4)c4ccccc4)c4ccccc4)cc3)ccc2C(c2ccc(C(=C(c3ccccc3)c3ccccc3)c3ccccc3)cc2)=C2C=CC(/C=C/c3ccc(C(=C(c4ccccc4)c4ccccc4)c4ccccc4)cc3)=[N+]21
photoluminescence quantum yield (in C1CCOC1): 0.503

Structure (SMILES): CCN(CC)c1ccc2cc(/C=C/C(=C(C#N)C#N)c3ccc4c(c3)c3ccccc3n4CC)c(=O)oc2c1
photoluminescence quantum yield (in CC(C)=O): 0.174
photoluminescence quantum yield (in CCOC(C)=O): 0.125
photoluminescence quantum yield (in CN(C)C=O): 0.194
photoluminescence quantum yield (in CS(C)=O): 0.185
photoluminescence quantum yield (in Cc1ccccc1): 0.041
photoluminescence quantum yield (in ClCCl): 0.146

Structure (SMILES): CCCCN1C(=S)c2cccc3cccc(c23)C1=S
photoluminescence quantum yield (in Cc1ccccc1): 0.01

Structure (SMILES): Cc1ccc2nc(-c3cccc4nc(C)[nH]c(=O)c34)[nH]c2c1
photoluminescence quantum yield (in CN(C)C=O): 0.036

Structure (SMILES): C[Si](C)(C)c1ccc(-c2ccc(-c3ccc(-c4ccc(-c5ccc([Si](C)(C)C)cc5)s4)c4nsnc34)s2)cc1
photoluminescence quantum yield (in C1CCOC1): 0.77

Structure (SMILES): CCCCC1(CCCC)c2cc(C#Cc3ccc(C=C(c4ccccc4)c4ccccc4)cc3)ccc2-c2ccc(C#Cc3ccc(C=C(c4ccccc4)c4ccccc4)cc3)cc21
photoluminescence quantum yield (in C1CCOC1): 0.048

Structure (SMILES): C=C(C)C(CN1C(=O)c2cccc3c2c(cc2oc(C)nc23)C1=O)OO (configuration not stated)
photoluminescence quantum yield (in CCO): 0.096

Structure (SMILES): CC1(C)c2ccccc2N(c2ccc(-c3nc4c(C#N)ccc(C#N)c4nc3-c3ccc(N4c5ccccc5C(C)(C)c5ccccc54)cc3)cc2)c2ccccc21
photoluminescence quantum yield (in Cc1ccccc1): 0.72

Structure (SMILES): CCN(CC)c1ccc(C(=C(c2ccccc2)c2ccc(B(c3c(C)cc(C)cc3C)c3c(C)cc(C)cc3C)cc2)c2ccc(N(CC)CC)cc2)cc1
photoluminescence quantum yield (in C1CCOC1): 0.19

Structure (SMILES): CC(C)(C)c1ccc2c(c1)Cc1cc(C(C)(C)C)ccc1-2
photoluminescence quantum yield (in C1CCCCC1): 0.7

More lines, now with the values ahead:

photoluminescence quantum yield (in C1CCOC1): 0.3
photoluminescence quantum yield (in ClCCl): 0.85
Structure (SMILES): O=P1(c2ccccc2)C(c2ccccc2)=Cc2ccccc21 (configuration not stated)

photoluminescence quantum yield (in CO): 0.18
photoluminescence quantum yield (in CS(C)=O): 0.37
photoluminescence quantum yield (in O): 0.01
Structure (SMILES): CCCN1/C(=C/C=C(/C=C/C2=[N+](CCC)c3ccccc3C2(C)C)c2ccc3ccccc3n2)C(C)(C)c2ccccc21

photoluminescence quantum yield (in ClCCl): 0.39
Structure (SMILES): COc1ccc(/C=C/C2=[O+][B-](F)(F)OC(/C=C/c3ccc(OC)cc3)=C2c2ccc(OC)cc2)cc1

photoluminescence quantum yield (in CCO): 0.0155
photoluminescence quantum yield (in ClCCl): 0.0368
photoluminescence quantum yield (in O): 0.101
Structure (SMILES): Oc1ccccc1-c1nc2ccccc2s1

photoluminescence quantum yield (in C1CCCCC1): 0.12
Structure (SMILES): CCCCC#Cc1cccc2cc(CCCC)c3cc(-c4cc[b-]5c(c4)c(CCCC)cc4cccc(C#CCCCC)[n+]54)cc[b-]3[n+]12

photoluminescence quantum yield (in CC#N): 0.031
Structure (SMILES): COc1ccc(-c2csc(/C(C#N)=C/c3ccc(Cl)cc3Cl)n2)cc1

photoluminescence quantum yield (in CS(C)=O): 0.25
photoluminescence quantum yield (in ClCCl): 0.9
Structure (SMILES): CCN(CC)c1ccc2c(c1)oc(=O)c1c(=O)oc3cc(Br)ccc3c12

photoluminescence quantum yield (in C1COCCO1): 0.108
Structure (SMILES): COc1ccc(C2=C/C(=C\c3ccccc3)C(=O)N2)cc1OC

photoluminescence quantum yield (in ClCCl): 0.63
Structure (SMILES): CCCCn1c(-c2ccc(-c3nnc(-c4ccc(-c5nc6ccccc6n5CCCC)cc4)o3)cc2)nc2ccccc21

photoluminescence quantum yield (in ClCCl): 0.04
Structure (SMILES): [O-][n+]1c(/C=C/c2ccc(/C=C/c3ccccc3)cc2)nc(N2CCOCC2)c2c1CCCC2

photoluminescence quantum yield (in ClCCl): 0.77
Structure (SMILES): C[Si]1(C)c2cc(C#Cc3ccccc3)ccc2C=Cc2ccc(C#Cc3ccccc3)cc21

photoluminescence quantum yield (in CCCCCC): 0.35
photoluminescence quantum yield (in CO): 0.31
photoluminescence quantum yield (in ClCCl): 0.41
Structure (SMILES): CCCCc1ccc2ccc3cccc4ccc1c2c34

photoluminescence quantum yield (in CC#N): 0.16
photoluminescence quantum yield (in CCCCCC): 0.18
photoluminescence quantum yield (in CCOC(C)=O): 0.2
photoluminescence quantum yield (in CO): 0.16
photoluminescence quantum yield (in ClCCl): 0.27
Structure (SMILES): CCCSc1ccc2n1[B-](F)(F)[N+]1=C(SC#N)C=CC1=C2c1ccccc1

photoluminescence quantum yield (in ClCCl): 0.65
Structure (SMILES): CC1=C(C#Cc2ccc(B(c3c(C)cc(C)cc3C)c3c(C)cc(C)cc3C)cc2)C(C)=[N+]2C1=C(c1ccccc1)c1c(C)c(C#Cc3ccc(B(c4c(C)cc(C)cc4C)c4c(C)cc(C)cc4C)cc3)c(C)n1[B-]2(F)F

Reference: the Deep4Chem optical property database
